Experimental findings from patent US9057090B2, “Method of identifying an agent for inhibiting odor of pyrazine derivatives” (Kao Corporation, priority 2012, dated 2015) are described below.

In the test the target is T1, olfactory receptor OR5K1 (Homo sapiens, UniProt Q8NHB7).
T1 construct: expressed in transfected cells; host or cells: HEK293
T1 sequence (Q8NHB7 1-308): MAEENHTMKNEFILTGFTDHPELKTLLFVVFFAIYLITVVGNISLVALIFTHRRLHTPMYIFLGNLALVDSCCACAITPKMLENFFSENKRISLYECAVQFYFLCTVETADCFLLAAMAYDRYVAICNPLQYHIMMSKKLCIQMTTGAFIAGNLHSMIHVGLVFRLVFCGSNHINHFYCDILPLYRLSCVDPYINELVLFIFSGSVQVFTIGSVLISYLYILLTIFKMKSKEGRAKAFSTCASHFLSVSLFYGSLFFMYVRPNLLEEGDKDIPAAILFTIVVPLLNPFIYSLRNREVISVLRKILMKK
Briefly: Luciferase reporter gene assay: response of olfactory receptor to pyrazine derivatives. The test is classed as cell-based. The settings on record: for response of OR5K1, dependency on concentration: 0, 3, 10, 30, 100, 300 and 1000 μM, HEK293 cells expressing OR5K1 with RTP1S variant, FIG. 2. As for the experimental part: HEK293 cells expressing 373 types of human olfactory receptors were produced. A reaction solution having a composition shown in Table 1 was prepared and left to stand in a clean bench for 15 min and then was dispensed in each well of a 96-well plate (Becton, Dickinson and Company). Subsequently, HEK293 cells (100 μL, 3×10^5 cells/cm^2) were seeded in each well and cultured in an incubator at 37° C. and 5% CO2 for 24 hr.
An olfactory receptor expressed in HEK293 cells couples with endogenous Gas in the cells to activate adenylate cyclase and thereby increases the amount of intracellular cAMP. In this study, the response of a pyrazine derivative was measured by luciferase reporter gene assay which monitors an increase in the amount of intracellular cAMP as the luminescence value derived from a firefly luciferase gene (fluc2P-CRE-hygro). A Renilla luciferase gene was fused downstream of a CMV promoter (hRluc-CMV) and was also introduced to HEK293 cells as an internal standard to correct errors in transgenic efficiency and number of cells.
The culture medium was removed from the culture produced in the above 3), and 75 μL of a solution prepared with a CD293 medium (Invitrogen Inc.) so as to contain a pyrazine derivative (1 mM 2,6-dimethylpyrazine) was added thereto. The cells were cultured in a CO2 incubator for 2.5 hr to sufficiently express the luciferase gene in the cells. The luciferase activity was measured with a Dual-Glo™ luciferase assay system (Promega Corporation) in accordance with the operating manual of the system. The fold increases were calculated by dividing the luminescence value derived from firefly luciferase induced by stimulation with a pyrazine derivative at each concentration by the luminescence value in cells not stimulated with the pyrazine derivative and were used as an index of response strength.
Olfactory receptor OR5K1 (SEQ ID NO: 2) was expressed in HEK293 cells together with an RTP1S variant (SEQ ID NO: 4) by the same procedure as in Example 1, and the dependency of the response on the concentration (0, 3, 10, 30, 100, 300, and 1000 μM) of various pyrazine compounds was investigated. The pyrazine compounds used in this Example were pyrazine and pyrazine derivatives selected from the group consisting of 2-methylpyrazine, 2,3-dimethylpyrazine, 2,5-dimethylpyrazine, 2,3,5-trimethylpyrazine, 2,3,5,6-tetramethylpyrazine and 2-ethylpyrazine.

The structures appear in SMILES notation.

On to `c1cnccn1` [pyrazine], for which the “response of OR5K1, dependency on concentration” value (“response of OR5K1, dependency” for short) is “did not respond”.

Take `CCc1cnccn1` [2-ethylpyrazine]: the “response of OR5K1, dependency” value was “responded in a dose-dependent manner”. For `Cc1cnc(C)cn1` [2,5-dimethylpyrazine], the “response of OR5K1, dependency” value is reported as “responded in a dose-dependent manner”. `Cc1cncc(C)n1` [2,6-dimethylpyrazine]: the “response of OR5K1, dependency” value is “responded in a dose-dependent manner”. Also, for the setting “1 mM, HEK293 cells expressing human olfactory receptors, FIG. 1”, the “response of the 373 types of olfactory receptors to the pyrazine derivative” value is given as “only olfactory receptor OR5K1 responded”. For the molecule `Cc1cnccn1` [2-methylpyrazine], the “response of OR5K1, dependency” value is listed as “responded in a dose-dependent manner”. Turning to `Cc1nccnc1C` [2,3-dimethylpyrazine], the “response of OR5K1, dependency” value is reported as “responded in a dose-dependent manner”. Regarding `Cc1nc(C)c(C)nc1C` [2,3,5,6-tetramethylpyrazine], the “response of OR5K1, dependency” value is on record as “responded in a dose-dependent manner”. Consider `Cc1cnc(C)c(C)n1` [2,3,5-trimethylpyrazine], for which the “response of OR5K1, dependency” value is on record as “responded in a dose-dependent manner”.
